Results from patent US6737383B1, “Herbicidal oxadiazolidines” (priority 1999, dated 2004).

Tests used:
rice = experiment: Test B flood test rice; format: in vivo, Oryza sativa
Method in brief: (§1)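 Each value is a visual injury score relative to controls, with 10 meaning complete control and 0 no effect. Evaluation took place twelve to sixteen days after the 2-leaf-stage plants were treated and kept in the greenhouse.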

crabgrass = experiment: Test B pre/postemergence crabgrass; format: in vivo, Digitaria sanguinalis
Method in brief: (§2)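 Herbicidal effect was estimated by eye on a ten-point control scale after plants spent twelve to sixteen days in a greenhouse following soil or foliar treatment. Foliar sprays targeted plants at one to four leaves; all doses were formulated in a non-phytotoxic solvent with surfactant.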

pigweed = experiment: Test B pre/postemergence pigweed; format: in vivo, Amaranthus retroflexus
Method in brief: as §2

rape = experiment: Test B pre/postemergence rape; format: in vivo, Brassica napus
Method in brief: as §2

cocklebur = experiment: Test B pre/postemergence cocklebur; format: in vivo, Xanthium strumarium
Method in brief: as §2

purple nutsedge = experiment: Test B pre/postemergence purple nutsedge; format: in vivo, Cyperus rotundus; settings: Preemergence
Method in brief: as §2

morningglory = experiment: Test B pre/postemergence morningglory; format: in vivo, Ipomoea hederacea
Method in brief: as §2

sugar beet = experiment: Test B pre/postemergence sugar beet; format: in vivo, Beta vulgaris
Method in brief: as §2

wheat = experiment: Test B pre/postemergence wheat; format: in vivo, Triticum aestivum
Method in brief: as §2

duck salad = experiment: Test B flood test duck salad; format: in vivo, Heteranthera limosa
Method in brief: as §1

soybean = experiment: Test B pre/postemergence soybean; format: in vivo, Glycine max
Method in brief: as §2

velvetleaf = experiment: Test B pre/postemergence velvetleaf; format: in vivo, Abutilon theophrasti
Method in brief: as §2

giant foxtail = experiment: Test B pre/postemergence giant foxtail; format: in vivo, Setaria faberii
Method in brief: as §2

wild oat = experiment: Test B pre/postemergence wild oat; format: in vivo, Avena fatua
Method in brief: as §2

corn = experiment: Test B pre/postemergence corn; format: in vivo, Zea mays
Method in brief: as §2

bamyardgrass = experiment: Test B flood test barnyardgrass; format: in vivo, Echinochloa crus-galli
Method in brief: as §1

[1] = Postemergence, Rate 1000 g/ha, scale 0 to 10 (0 no effect, 10 complete control)
[2] = Rate 125 g/ha, Postemergence section (flood test species), scale 0 to 10, 0 no effect, 10 complete control
[3] = Rate 500 g/ha, Postemergence section of Table B, 0 to 10 scale (0 no effect, 10 complete control)
[4] = flood test, listed under Postemergence, Rate 250 g/ha, scale 0 to 10, 0 no effect, 10 complete control
[5] = Postemergence, Rate 250 g/ha, scale 0 to 10, 0 no effect, 10 complete control
[6] = Preemergence, Rate 500 g/ha, scale 0 (no effect) to 10 (complete control)
[7] = Rate 125 g/ha, Postemergence, scale 0 to 10, 0 no effect, 10 complete control
[8] = Rate 500 g/ha, Postemergence, 0 to 10 scale (0 no effect, 10 complete control)
[9] = Rate 1000 g/ha, Preemergence, scale 0 to 10 (0 no effect, 10 complete control)
[10] = Preemergence, Rate 125 g/ha, scale 0 to 10 (0 no effect, 10 complete control)
[11] = Preemergence, Rate 250 g/ha, scale of 0 to 10 where 0 is no effect and 10 is complete control

`CC(C)N(C(=O)n1oc(=O)n(-c2ccccc2Cl)c1=O)c1ccc(F)cc1` [Compound 8] was tested. Which “Rice plant response rating” value (rice; [1]) did it give?
The value was 0.

And the “Rice plant response rating” value (rice; [2])?
Its value is 0.

What about the “Rice plant response rating” value (rice; [3]) of the same compound?
The value was 0.

What about the “Rice plant response rating” value (rice; [4]) of the same compound?
Its value is 0.

And the “Crabgrass plant response rating” value (crabgrass; [5])?
Its value is 0.

What about the “Crabgrass plant response rating” value (crabgrass; [1]) of the same compound?
Its value is 6.

What about the “Crabgrass plant response rating” value (crabgrass; [6]) of the same compound?
Its value is 6.

What about the “Crabgrass plant response rating” value (crabgrass; [7]) of the same compound?
The value was 0.

And the “Crabgrass plant response rating” value (crabgrass; [8])?
Its value is 0.

And the “Plant response rating, Crabgrass” value (crabgrass; [9])?
Its value is 9.

And the “Redroot pigweed plant response rating” value (pigweed; [5])?
Its value is 0.

What about the “Redroot pigweed plant response rating” value (pigweed; [1]) of the same compound?
Its value is 5.

And the “Plant response rating, Redroot pigweed” value (pigweed; [10])?
Its value is 4.

What about the “Plant response rating, Redroot pigweed” value (pigweed; [11]) of the same compound?
The value was 5.

What about the “Redroot pigweed plant response rating” value (pigweed; [6]) of the same compound?
Its value is 5.

What about the “Redroot pigweed plant response rating” value (pigweed; [7]) of the same compound?
Its value is 0.

What about the “Redroot pigweed plant response rating” value (pigweed; [8]) of the same compound?
The value was 0.

And the “Plant response rating, Redroot pigweed” value (pigweed; [9])?
Its value is 7.

What about the “Rape plant response rating” value (rape; [5]) of the same compound?
Its value is 0.

And the “Rape plant response rating” value (rape; [1])?
Its value is 0.

What about the “Plant response rating, Rape” value (rape; [10]) of the same compound?
Its value is 0.

What about the “Plant response rating, Rape” value (rape; [11]) of the same compound?
The value was 0.

And the “Rape plant response rating” value (rape; [6])?
Its value is 0.

What about the “Rape plant response rating” value (rape; [7]) of the same compound?
Its value is 0.

And the “Rape plant response rating” value (rape; [8])?
The value was 0.

What about the “Plant response rating, Rape” value (rape; [9]) of the same compound?
Its value is 0.

What about the “Cocklebur plant response rating” value (cocklebur; [5]) of the same compound?
Its value is 0.

What about the “Cocklebur plant response rating” value (cocklebur; [1]) of the same compound?
Its value is 2.

And the “Plant response rating, Cocklebur” value (cocklebur; [10])?
Its value is 0.

And the “Plant response rating, Cocklebur” value (cocklebur; [11])?
The value was 0.

What about the “Cocklebur plant response rating” value (cocklebur; [6]) of the same compound?
The value was 0.

What about the “Cocklebur plant response rating” value (cocklebur; [7]) of the same compound?
The value was 0.

And the “Cocklebur plant response rating” value (cocklebur; [8])?
The value was 1.

And the “Plant response rating, Cocklebur” value (cocklebur; [9])?
The value was 0.

What about the “Plant response rating, Nutsedge” value (purple nutsedge; Rate 125 g/ha, scale 0 to 10 (0 no effect, 10 complete control)) of the same compound?
Its value is 0.

What about the “Plant response rating, Nutsedge” value (purple nutsedge; Rate 250 g/ha, scale of 0 to 10 where 0 is no effect and 10 is complete control) of the same compound?
The value was 0.

And the “Nutsedge plant response rating” value (purple nutsedge; Rate 500 g/ha, scale 0 (no effect) to 10 (complete control))?
The value was 0.

And the “Plant response rating, Nutsedge” value (purple nutsedge; Rate 1000 g/ha, scale 0 to 10 (0 no effect, 10 complete control))?
The value was 0.

What about the “Morningglory plant response rating” value (morningglory; [5]) of the same compound?
Its value is 0.

What about the “Morningglory plant response rating” value (morningglory; [1]) of the same compound?
The value was 6.

And the “Plant response rating, Morningglory” value (morningglory; [10])?
Its value is 0.

And the “Plant response rating, Morningglory” value (morningglory; [11])?
The value was 0.

What about the “Morningglory plant response rating” value (morningglory; [6]) of the same compound?
The value was 0.

And the “Morningglory plant response rating” value (morningglory; [7])?
The value was 0.

And the “Morningglory plant response rating” value (morningglory; [8])?
Its value is 2.

And the “Plant response rating, Morningglory” value (morningglory; [9])?
Its value is 0.

And the “Sugarbeets plant response rating” value (sugar beet; [5])?
Its value is 0.

What about the “Sugarbeets plant response rating” value (sugar beet; [1]) of the same compound?
Its value is 2.

And the “Plant response rating, Sugarbeets” value (sugar beet; [10])?
Its value is 0.

And the “Plant response rating, Sugarbeets” value (sugar beet; [11])?
The value was 0.

And the “Sugarbeets plant response rating” value (sugar beet; [6])?
Its value is 0.

What about the “Sugarbeets plant response rating” value (sugar beet; [7]) of the same compound?
The value was 0.

And the “Plant response rating, Sugarbeets” value (sugar beet; [9])?
Its value is 0.

What about the “Wheat plant response rating” value (wheat; [5]) of the same compound?
Its value is 0.

And the “Wheat plant response rating” value (wheat; [1])?
Its value is 3.

What about the “Plant response rating, Wheat” value (wheat; [10]) of the same compound?
The value was 0.

What about the “Plant response rating, Wheat” value (wheat; [11]) of the same compound?
Its value is 0.

What about the “Wheat plant response rating” value (wheat; [6]) of the same compound?
Its value is 0.

And the “Wheat plant response rating” value (wheat; [7])?
Its value is 0.

And the “Plant response rating, Wheat” value (wheat; [9])?
The value was 0.

What about the “Ducksalad plant response rating” value (duck salad; [1]) of the same compound?
Its value is 0.

What about the “Ducksalad plant response rating” value (duck salad; [2]) of the same compound?
The value was 0.

What about the “Ducksalad plant response rating” value (duck salad; [3]) of the same compound?
The value was 0.

What about the “Ducksalad plant response rating” value (duck salad; [4]) of the same compound?
The value was 0.

What about the “Soybean plant response rating” value (soybean; [5]) of the same compound?
Its value is 4.

What about the “Soybean plant response rating” value (soybean; [1]) of the same compound?
The value was 5.

What about the “Plant response rating, Soybean” value (soybean; [10]) of the same compound?
Its value is 0.

And the “Plant response rating, Soybean” value (soybean; [11])?
Its value is 0.

And the “Soybean plant response rating” value (soybean; [6])?
Its value is 0.

And the “Soybean plant response rating” value (soybean; [7])?
The value was 3.

What about the “Plant response rating, Soybean” value (soybean; [9]) of the same compound?
The value was 0.

What about the “Velvetleaf plant response rating” value (velvetleaf; [5]) of the same compound?
The value was 0.

What about the “Velvetleaf plant response rating” value (velvetleaf; [1]) of the same compound?
Its value is 1.

What about the “Plant response rating, Velvetleaf” value (velvetleaf; [10]) of the same compound?
The value was 0.

And the “Velvetleaf plant response rating” value (velvetleaf; [6])?
The value was 0.

And the “Velvetleaf plant response rating” value (velvetleaf; [7])?
Its value is 0.

And the “Plant response rating, Velvetleaf” value (velvetleaf; [9])?
Its value is 4.

What about the “Giant foxtail plant response rating” value (giant foxtail; [5]) of the same compound?
Its value is 0.

And the “Giant foxtail plant response rating” value (giant foxtail; [1])?
The value was 4.

What about the “Plant response rating, Giant foxtail” value (giant foxtail; [10]) of the same compound?
Its value is 5.

What about the “Plant response rating, Giant foxtail” value (giant foxtail; [11]) of the same compound?
The value was 9.

What about the “Giant foxtail plant response rating” value (giant foxtail; [6]) of the same compound?
The value was 10.

And the “Giant foxtail plant response rating” value (giant foxtail; [7])?
The value was 0.

What about the “Giant foxtail plant response rating” value (giant foxtail; [8]) of the same compound?
The value was 2.

What about the “Plant response rating, Giant foxtail” value (giant foxtail; [9]) of the same compound?
The value was 10.

What about the “Wild oats plant response rating” value (wild oat; [5]) of the same compound?
Its value is 0.

What about the “Wild oats plant response rating” value (wild oat; [1]) of the same compound?
The value was 3.

What about the “Plant response rating, Wild oats” value (wild oat; [10]) of the same compound?
Its value is 0.

What about the “Plant response rating, Wild oats” value (wild oat; [11]) of the same compound?
Its value is 0.

What about the “Wild oats plant response rating” value (wild oat; [6]) of the same compound?
Its value is 2.

What about the “Wild oats plant response rating” value (wild oat; [7]) of the same compound?
The value was 0.

What about the “Plant response rating, Wild oats” value (wild oat; [9]) of the same compound?
The value was 3.

What about the “Corn plant response rating” value (corn; [5]) of the same compound?
Its value is 0.

And the “Corn plant response rating” value (corn; [1])?
The value was 3.

What about the “Plant response rating, Corn” value (corn; [10]) of the same compound?
The value was 0.

What about the “Plant response rating, Corn” value (corn; [11]) of the same compound?
The value was 0.

And the “Corn plant response rating” value (corn; [6])?
The value was 0.

And the “Corn plant response rating” value (corn; [7])?
The value was 0.

And the “Corn plant response rating” value (corn; [8])?
The value was 0.

And the “Plant response rating, Corn” value (corn; [9])?
The value was 3.

And the “Barnyardgrass plant response rating” value (bamyardgrass; [1])?
The value was 0.

And the “Barnyardgrass plant response rating” value (bamyardgrass; [2])?
The value was 0.

What about the “Barnyardgrass plant response rating” value (bamyardgrass; [3]) of the same compound?
The value was 0.

And the “Barnyardgrass plant response rating” value (bamyardgrass; [4])?
Its value is 0.
